“And” between values parts separate entries of the source, which are not always exact repeats. Equal entries are not always repeated. Where two headings read alike, the source gives them in different places.
Legend:
[1] = Single-dose toxicity study (MTD); settings: monkey, in vivo, po
[2] = Plasma protein binding, monkey; type: in vitro ADME; settings: 100 μM (41700 ng/mL)
Description: (§1) […]. […] […].

[3] = Plasma protein binding, rat; type: in vitro ADME; settings: 100 μM (41700 ng/mL)
Description: as §1

[4] = Clinical study in healthy adult subjects, pharmacokinetics; type: in vivo, human; settings: for AUC(0-24) / AUC(0-inf) / Cmax / T1/2 / half-life / AUC: mean (% CV); for AUC: read-out: AUC(0-tau)
[5] = Pharmacokinetics, mouse; type: in vivo, BALB/c mice
[6] = tested on: PI3K-δ and PI3K-γ; assay: Phase 1 study in advanced hematologic malignancies, pharmacodynamics; type: in vivo, human; settings: flow cytometry, after one dose (25 mg)
Description: PK and PD markers were evaluated after the first dose (e.g., 8 mg BID) and at steady state. PD activity (PI3K inhibition) in whole blood was evaluated using a basophil activation assay which measured reduction in CD63 expression on the surface of basophils following ex vivo stimulation.

[7] = DDI portion, 200 mg q12h ketoconazole
[8] = human, plasma, oral, 1 mg, 1 mg Q12 h, Day 1
[9] = human, plasma, oral, 1 mg, 1 mg Q12 h, Day 14
[10] = human, plasma, oral, 2 mg, 2 mg Q12 h, Day 1
[11] = human, plasma, oral, 2 mg, 2 mg Q12 h, Day 14
[12] = human, plasma, oral, 5 mg, 5 mg Q12 h, Day 1
[13] = human, plasma, oral, 5 mg, 5 mg Q12 h, Day 14
[14] = human, plasma, oral, 10 mg, 10 mg Q24 h, Day 1
[15] = human, plasma, oral, 10 mg, 10 mg Q24 h, Day 14

C[C@H](Nc1ncnc2[nH]cnc12)c1cc2cccc(Cl)c2c(=O)n1-c1ccccc1 [Compound 292]
MTD [1]: 500 mg/kg | protein bound [2]: 76.8% | protein bound [3]: 85.8% | AUC(0-24) ([4]; 1 mg single dose): 149 (67) ng * hr/mL | AUC(0-inf) ([4]; 1 mg single dose): 151 (68) ng * hr/mL | Cmax ([4]; 1 mg single dose): 43.4 (31) ng/mL | T1/2 ([4]; 1 mg single dose): 3.52 (29) hr | AUC(0-24) ([4]; 2 mg single dose): 289 (43) ng * hr/mL | AUC(0-inf) ([4]; 2 mg single dose): 296 (44) ng * hr/mL | Cmax ([4]; 2 mg single dose): 78.8 (16) ng/mL | T1/2 ([4]; 2 mg single dose): 5.43 (25) hr | AUC(0-24) ([4]; 5 mg single dose): 733 (5) ng * hr/mL | AUC(0-inf) ([4]; 5 mg single dose): 743 (5) ng * hr/mL | Cmax ([4]; 5 mg single dose): 246 (16) ng/mL | T1/2 ([4]; 5 mg single dose): 5.43 (10) hr | AUC(0-24) ([4]; 10 mg single dose): 891 (14) ng * hr/mL | AUC(0-inf) ([4]; 10 mg single dose): 914 (14) ng * hr/mL | Cmax ([4]; 10 mg single dose): 454 (40) ng/mL | T1/2 ([4]; 10 mg single dose): 9.47 (38) hr | AUC(0-24) ([4]; 20 mg single dose): 2193 (16) ng * hr/mL | AUC(0-inf) ([4]; 20 mg single dose): 2250 (16) ng * hr/mL | Cmax ([4]; 20 mg single dose): 997 (32) ng/mL | T1/2 ([4]; 20 mg single dose): 7.79 (51) hr | AUC(0-24) ([4]; 30 mg single dose): 3263 (38) ng * hr/mL | AUC(0-inf) ([4]; 30 mg single dose): 3395 (38) ng * hr/mL | Cmax ([4]; 30 mg single dose): 1140 (38) ng/mL | T1/2 ([4]; 30 mg single dose): 8.12 (18) hr | increase of AUC0-inf in the presence of ketoconazole [4, 7]: ~295% | increase of AUC0-last in the presence of ketoconazole [4, 7]: ~285% | increase of Cmax in the presence of ketoconazole [4, 7]: approximately 66% | excretion of unchanged compound in urine ([4]; healthy subjects): < 2 % of the administered dose | accumulation ([4]; healthy subjects, 14 days of Q12 h oral administration): less than 2 fold | half-life [4, 8]: 3.46 h | AUC [4, 8]: 124 ng·h/mL | Cmax ([4]; human, plasma, oral, 1 mg, 1 mg Q12 h, Day 1, read-out: Cmax): 49.1 ng/mL | half-life [4, 9]: 6.46 h | AUC [4, 9]: 199 ng·h/mL | Cmax ([4]; human, plasma, oral, 1 mg, 1 mg Q12 h, Day 14, read-out: Cmax): 66.8 ng/mL | half-life [4, 10]: 6.34 h | AUC [4, 10]: 290 ng·h/mL | Cmax ([4]; human, plasma, oral, 2 mg, 2 mg Q12 h, Day 1, read-out: Cmax): 101 ng/mL | half-life [4, 11]: 9.75 h | AUC [4, 11]: 524 ng·h/mL | Cmax ([4]; human, plasma, oral, 2 mg, 2 mg Q12 h, Day 14, read-out: Cmax): 140 ng/mL | half-life [4, 12]: 5.76 h | AUC [4, 12]: 774 ng·h/mL | Cmax ([4]; human, plasma, oral, 5 mg, 5 mg Q12 h, Day 1, read-out: Cmax): 257 ng/mL | half-life [4, 13]: 8.32 h | AUC [4, 13]: 1290 ng·h/mL | Cmax ([4]; human, plasma, oral, 5 mg, 5 mg Q12 h, Day 14, read-out: Cmax): 355 ng/mL | half-life [4, 14]: 6 h | AUC [4, 14]: 1530 ng·h/mL | Cmax ([4]; human, plasma, oral, 10 mg, 10 mg Q24 h, Day 1, read-out: Cmax): 553 ng/mL | half-life [4, 15]: 11.7 h | AUC [4, 15]: 2230 ng·h/mL | Cmax ([4]; human, plasma, oral, 10 mg, 10 mg Q24 h, Day 14, read-out: Cmax): 605 ng/mL | AUC(0-t) ([4]; human, plasma, healthy subjects, 5 mg BID, 14 days of oral dosing, read-out: mean AUC0-24 hr): 2580 ng·h/mL | half-life [5]: less than 2 hrs | AUC(0-inf) ([5]; BALB/c, in vivo, IV, 10 mg/kg): 1900 ng·h/mL | AUC(0-t) ([5]; BALB/c, in vivo, IV, 10 mg/kg): 1900 ng·h/mL | Cmax ([5]; BALB/c, in vivo, IV, 10 mg/kg): 5560 ng/mL | Tmax ([5]; BALB/c, in vivo, IV, 10 mg/kg): 4.98 min | clearance ([5]; BALB/c, in vivo, IV, 10 mg/kg): 87.5 mL/min/kg | half-life ([5]; BALB/c, in vivo, IV, 10 mg/kg, read-out: T1/2 (converted)): 0.22 h | Vd ([5]; BALB/c, in vivo, IV, 10 mg/kg, read-out: Vss): 1.14 L/kg | AUC(0-t) ([5]; BALB/c, in vivo, PO, 10 mg/kg): 137 ng·h/mL | Cmax ([5]; BALB/c, in vivo, PO, 10 mg/kg): 390 ng/mL | Tmax ([5]; BALB/c, in vivo, PO, 10 mg/kg): 4.98 min | Foral ([5]; PO, 10 mg/kg, calculated using AUC0-last): 7% and 7^i % | AKT phosphorylation in CLL/SLL cells [6]: rapid and sustained inhibition

Source: patent US20140120083A1, “TREATMENT OF CANCERS USING PI3 KINASE ISOFORM MODULATORS” (INFINITY PHARMACEUTICALS, INC., priority 2012, published 2014)
